# Experiments:
# [1] = test system: peptide-pulsed C1R-A03; assay: In vitro CTL induction, IFN-gamma ELISPOT assay (HLA-A*0301); format: cell-based, human; conditions: CTLs induced with peptide-pulsed DCs from HLA-A*0301-positive volunteers; day 21; vs peptide-pulsed C1R-A03, compared with unpulsed control
# Experimental: C1R (C1R-A03) that stably expresses HLA-A*0301 was used as a stimulator cell. A cDNA encoding the open-reading frame of HLA-A*0301 was amplified by PCR and cloned into an expression vector. C1R cells were transfected with the expression vector, and then selected using G418 (Invitrogen) for two weeks. The G418-selected cells were seeded into wells containing G418-added culture medium in a 96-well plate, and further cultured for 30 days. The exogenous HLA-A*0301 expression in C1R cells was verified by flow cytometric analysis.
# Monocyte-derived dendritic cells (DCs) were used as the antigen-presenting cell to induce a cytotoxic T lymphocyte (CTL) response against peptides presented on human leukocyte antigens (HLAs). As described in the other sections, DCs were generated in vitro (Nakahara S et al., Cancer Res 2003, 63(14): 4112-8). Specifically, peripheral-blood mononuclear cells isolated from healthy volunteers (HLA-A*0301-positive) with the Ficoll-Paque plus solution (Pharmacia) were separated by attaching to plastic tissue culture dishes (Becton Dickinson) and concentrated as a monocyte fraction. The monocyte-concentrated population was cultured in the presence of 1000 IU/ml granulocyte macrophage colony-stimulating factor (R&D System) and 1000 IU/ml interleukin(IL)-4 (R&D System) in an AIM-V medium (Invitrogen) containing 2% heat-inactivated autologous serum (AS). After seven days of culturing, the cytokine-induced DCs were pulsed with 20 micro-g/ml each of the synthesized peptides in an AIM-V medium at 37 degrees C. for three hours in the presence of 3 micro-g/ml beta 2-microglobulin. The generated cells appeared to express on their cell surface DC-associated molecules such as CD80, CD83, CD86 and HLA class II (data not shown). Next, these peptide-pulsed DCs were inactivated by X-ray irradiation (20 Gy), and mixed in a 1:20 ratio with autologous CD8^+ T cells obtained by positive selection using the CD8 Positive Isolation Kit (Dynal). These culture products were seeded in a 48-well plate (Corning). Each well was made to contain 1.5×10^4 peptide-pulsed DCs, 3×10^5 CD8^+ T cells and 10 ng/ml IL-7 (R&D System) in 0.5 ml of the AIM-V/2% AS medium. Three days later, these culture products were added with a final concentration of 20 IU/ml IL-2 (CHIRON). On day 7 and day 14, T cells were further stimulated with peptide-pulsed autologous DCs. The DCs were prepared every time by the same method as above. […]
# [2] = test system: peptide-pulsed C1R-A11; assay: IFN-gamma ELISA of CTL lines and CTL clones (HLA-A*1101); format: cell-based, human; conditions: CTL lines; target cells pulsed with the peptide vs not pulsed; C1R-A11
# Experimental: CTLs were propagated in culture using methods similar to those disclosed by Riddell et al. (Walter E A et al., N Engl J Med 1995, 333(16): 1038-44; Riddell S R et al., Nat Med 1996, 2(2): 216-23). The CTLs were co-cultured in a total of 25 ml AIM-V medium containing 5% AS (AIM-V/5% AS) and 40 ng/ml anti-CD3 antibody with two types of Mitomycin C-treated human B lymphoblastoid cell lines at 5×10^6 cells/flask. One day after beginning of the culturing, 120 IU/ml IL-2 was added to the culture. On days 5, 8 and 11, a fresh AIM-V/5% AS medium containing 30 IU/ml IL-2 was added to the culture (Tanaka H et al., Br J Cancer 2001, 84(1): 94-9; Umano Y et al., Br J Cancer 2001, 84(8): 1052-7; Uchida N et al., Clin Cancer Res 2004, 10(24): 8577-86; Suda T et al., Cancer Sci 2006, 97(5): 411-9; Watanabe T et al., Cancer Sci 2005, 96(8): 498-506).
# Dilution of CTLs was carried out to make 0.3, 1 and 3 cells/well in 96 round-bottomed microtiter plates (Nalge Nunc International). The CTLs were co-cultured with two types of Mitomycin C-treated human B lymphoblastoid cell lines at 1×10^4 cells/well in a total of 150 micro-1/well AIM-V/5% AS medium with 30 ng/ml anti-CD3 antibody and 125 IU/ml IL-2. Ten days later, IL-2 was added to the medium at 50 micro-1/well to reach a final concentration of 125 IU/ml. On day 14, the CTL activity was tested, and the CTL clones were propagated using the same method as described above (Uchida N et al., Clin Cancer Res 2004, 10(24): 8577-86; Suda T et al., Cancer Sci 2006, 97(5): 411-9; Watanabe T et al., Cancer Sci 2005, 96(8): 498-506).
# Specifically, peptide-pulsed C1R-A11 (1×10^4 cells/well) was prepared as the stimulator cell. The induced CTLs, i.e., CTL lines and CTL clones, were used as the responder cell. The IFN-gamma ELISPOT assay and IFN-gamma ELISA were performed according to the manufacturer's manual.
Sequence,"peptide-specific CTL activity (IFN-gamma production), ELISPOT [1]","IFN-gamma production of CTL lines, ELISA [2]"
ILAHNNFVGR (a peptide derived from KOC1) [SEQ ID NO: 52],potent IFN-gamma production,–
TQFVGAIIGK (a peptide derived from KOC1) [SEQ ID NO: 30],potent IFN-gamma production,potent IFN-gamma production

# Reference: patent US10576102B2, “KOC1-derived peptide and vaccine including same” (ONCOTHERAPY SCIENCE, INC., priority 2014, dated 2020)
